Tests used:
Assay type in all cases: in vivo, ICR mice
[1] = tested on: normal mice and mice with type 2 DM; experiment: Intraperitoneal glucose tolerance test (IPGTT)
Method: (§1) After three days of acclimatization, the mice had free access to a standard rodent chow (normal mice), a standard rodent chow after single […] streptozotocin (STZ) intraperitoneal injection (T1DM mice), and a fat-rich chow diet and fructose-sweetened water (T2DM mice) for 4 weeks. The induction of Type 1 DM was assessed and confirmed when the mice had plasma glucose levels ≧350 mgdL^−1, accompanied with polyuria, hyperphagia and decreased body weight. The induction Type 2 DM in the mice was assessed by measuring fasting plasma glucose levels and confirmed when plasma glucose level was ≧150 mgdL^−1 after the 4-week induction. The animals were assigned randomly into three groups, with seven animals in each group. In group I, the mice were treated with vehicle, 2% DMSO in normal saline, as the negative control. In group II, the mice were intraperitoneally treated with borapetoside A (0.1-10 mgkg^−1). In group Ill, the positive control, the mice received intraperitoneally metformin (300 mgkg^−1; Sigma Chemical Co., St. Louis, Mo., U.S.A.) or insulin (0.5 IUkg^−1; Insulin Actrapid® HM; Novo Nordisk, Denmark). In the acute study, mice under anesthesia received a single intraperitoneal administration of borapetoside A, negative control, or positive control. In the subacute study, mice received intraperitoneal administrations of borapetoside A, vehicle, or insulin twice a day for seven days.
Blood samples were collected from the orbital vascular plexus of the mice under anesthesia. Blood samples were then centrifuged at 13000 rpm for 5 min, and the plasma samples were collected and kept on ice prior to the assay. The plasma glucose concentration was measured by Glucose Kit Reagent (Biosystems S. A., Barcelona, Spain) following the manufacturer's instructions, and the insulin levels were estimated using mouse insulin ELISA kit (Mercodia AB, Uppsala, Sweden).
The mice were maintained under anesthesia throughout the procedure. Glucose (2.0 gkg^−1) was administered intraperitoneally. Blood samples were collected from the orbital vascular plexus at 0, 30, 60, 120 min. The concentrations of the plasma glucose were measured, and the values of AUC were calculated accordantly.

[2] = tested on: normal mice, mice with type 1 DM, mice with type 2 DM; experiment: Plasma glucose after single intraperitoneal borapetoside A (acute study); conditions: 60 min; for dose giving significant decrease of plasma glucose level: single i.p.
Method: The 4-week-old male ICR mice were purchased from the Animal Center of the College of Medicine, National Taiwan University (Taipei, Taiwan) with delicate humane care. This animal study was conducted by following the University ethical guidelines and the ‘Guide for the Care and Use of Laboratory Animals’ published by the US National Institutes of Health (NIH publication no. 85-23, revised 1996). The animal experiments were approved by the Institutional Animal Care and Use Committee (IACUC) of the National Taiwan University (IACUC No. 20110073). Animals were housed in a room at the constant temperature, 22±1° C., with 12 hours light and dark cycles.
as §1, with “In group Ill, the positive control, the mice received intraperitoneally metformin (300 mgkg^−1; Sigma Chemical Co., St. Louis, Mo., U.S.A.) or insulin (0.5 IUkg^−1; Insulin Actrapid® HM; Novo Nordisk, Denmark). In the acute study, mice under anesthesia received a single intraperitoneal administration of borapetoside A, negative control, or positive control. In the subacute study, mice received intraperitoneal administrations of borapetoside A, vehicle, or insulin twice a day for seven days.” left out
Blood samples were collected from the orbital vascular plexus of the mice under anesthesia. […] The plasma glucose concentration was measured by Glucose Kit Reagent (Biosystems S. A., Barcelona, Spain) following the manufacturer's instructions, and the insulin levels were estimated using mouse insulin ELISA kit (Mercodia AB, Uppsala, Sweden).

[3] = tested on: IR, Akt and GLUT2 in liver of T1DM mice; experiment: Western blot of IR-related signaling mediators in liver after 7-day borapetoside C, alone or with insulin
Method: T1DM mice were induced by a known method. In brief, an intraperitoneal injection of streptozotocin (STZ; Sigma Chemical Co.; St. Louis, Mo.) at 150 mg/kg was performed in mice that were fasted for 48 h. The induction of T1DM was assessed and confirmed when the mice had plasma glucose levels ≧350 mg/dL, accompanied with polyuria, hyperphagia and decreased body weight. The control mice group received an injection of vehicle and then carried out for 4 weeks. T2DM mice were induced by maintaining on a fat-rich chow diet and fructose-sweetened water for 4 weeks from the age of 4-5 weeks according to previous methods. The induction T2DM mice were assessed by measuring fasting plasma glucose levels and confirmed when plasma glucose level was ≧150 mg/dL after a 4-week induction.
After treatment, the mice were sacrificed by cervical dislocation under anesthesia.
The liver was immediately frozen in liquid nitrogen. The liver tissue was preserved at −80° C. before they were used for further assays.
Tissues were homogenized in T-PER® Tissue Protein Extraction Reagent (Pierce Biotechnology, Rockford, Ill.) with Halt™ Protease Inhibitor Single-Use Cocktail (Pierce Biotechnology, Rockford, Ill.). Liver homogenates were prepared by mechanical homogenization (Polytron PT3100, Luzernerstrasse, Switzerland). After centrifuging the homogenates at 10,000 g for 30 min, the supernatants were collected and frozen at −80° C. for further use. The protein concentrations were determined by using a BCA Protein Assay Kit (Pierce Biotechnology, Rockford, Ill.). For western blot analysis, about 60 μg of protein preparations were applied on 10% sodium dodecyl sulfate-polyacrylamide gel electrophoresis and then transferred to polyvinylidene difluoride membranes (Millipore, Billerica, Mass.). The membranes were blocked with 5% (w/v) non-fat dry milk in phosphate buffered saline (PBS) containing 0.1% Tween 20 (PBS-T). After blocking, the blotted membrane was incubated with anti-phospho-insulin receptor β (IRβ) (Tyr^1345), phospho-Akt (Ser^473) (Cell Signaling Technology, Beverly, Mass.), anti-IRβ, Akt, β-Actin (Santa Cruz Biotechnology, Santa Cruz, Calif.), and anti-GLUT2 antibodies (Abcam, Cambridge, UK) in presence of 3% bovine serum albumin (BSA) in PBS-T buffer. Following the incubation, the membranes were washed 3 times with PBS-T for 15 min each and then incubated with the appropriate peroxidase-conjugated secondary antibodies (Santa Cruz. Biotechnology, USA) in PBS-T. After removal of the secondary antibody, blots were washed and developed using the enhanced chemiluminescenece (ECL) western blotting system (Millipore, Billerica, Mass.). The density of the protein bands were quantified using ImageQuant.

[4] = borapetoside C 0.1 mg/kg twice daily, alone or with insulin 1.0 IU/kg twice daily
[5] = borapetoside C 5.0 mg/kg vs insulin 0.5 IU/kg twice daily

Q: How did the “increase of plasma glucose level at 30 min in IPGTT, compared to the vehicle group” value ([1]; normal and type 2 DM mice, borapetoside A 0.1, 1 and 10 mgkg^−1, metformin) turn out when C[C@@]12C[C@@H](c3ccoc3)OC(=O)[C@@H]1C[C@@H]1OC(=O)[C@@]3(O)[C@@H](O[C@@H]4O[C@H](CO)[C@@H](O)[C@H](O)[C@H]4O)CC[C@@H]2[C@@]13C [Borapetoside A, borapetoside A] was run?
A: significantly suppressed

Q: And the “area under the curve (AUC) in IPGTT” value ([1]; normal mice, 0.1 mgkg^−1)?
A: 78.8±3.0 % of vehicle control

Q: What about the “area under the curve (AUC) in IPGTT” value ([1]; normal mice, 1 mgkg^−1) of the same compound?
A: 69.9±7.1 % of vehicle control

Q: What about the “area under the curve (AUC) in IPGTT” value ([1]; normal mice, 10 mgkg^−1) of the same compound?
A: 68.9±3.5 % of vehicle control

Q: And the “area under the curve (AUC) in IPGTT” value ([1]; type 2 DM bearing mice, 0.1 mgkg^−1)?
A: 74.9±4.5 % of vehicle control

Q: And the “area under the curve (AUC) in IPGTT” value ([1]; type 2 DM bearing mice, 1 mgkg^−1)?
A: 71.1±3.2 % of vehicle control

Q: What about the “area under the curve (AUC) in IPGTT” value ([1]; type 2 DM bearing mice, 10 mgkg^−1) of the same compound?
A: 68.9±1.9 % of vehicle control

Q: What about the “dose giving significant decrease of plasma glucose level” value ([2]; mice with type 2 DM) of the same compound?
A: higher than 0.3 mgkg^−1

Q: What about the “dose giving significant decrease of plasma glucose level” value ([2]; normal mice) of the same compound?
A: ≥ 1 mgkg^−1

Q: What about the plasma glucose level ([2]; normal, type 1 DM and type 2 DM mice, 0.1-10.0 mgkg^−1 single i.p.) of the same compound?
A: lowered the plasma glucose level

Q: COC(=O)C1=CCC[C@H]2[C@]3(C)C[C@@H](c4ccoc4)OC(=O)[C@@H]3C[C@@H](O[C@@H]3O[C@H](CO)[C@@H](O)[C@H](O)[C@H]3O)[C@@]12C [Borapetoside C, borapetoside C] was tested. Which “expression of GLUT2 in liver” value ([3]; 5.0 mg/kg twice daily) did it give?
A: increased

Q: What about the “level of phosphorylated Akt in liver” value ([3]; 5.0 mg/kg twice daily) of the same compound?
A: increased

Q: What about the “level of phosphorylated IR in liver” value ([3]; 5.0 mg/kg twice daily) of the same compound?
A: increased

Q: And the “GLUT2 in liver vs vehicle-treated” value [3, 4]?
A: not significantly increased

Q: What about the “serine phosphorylation of Akt in liver vs vehicle-treated” value [3, 4] of the same compound?
A: not significantly increased

Q: What about the “tyrosine phosphorylation of IR in liver vs vehicle-treated” value [3, 4] of the same compound?
A: not significantly increased

Q: And the “phosphorylation of Akt and GLUT2 expression compared with the effect of insulin” value [3, 5]?
A: less phosphorylation of Akt and GLUT2 expression

Q: And the “phosphorylation of IR compared with the effect of insulin” value [3, 5]?
A: more phosphorylation of IR

Reference: US20150265682A1, “THERAPEUTIC METHODS AND COMPOSITIONS FOR TREATING DIABETES” (Orient Europharma Co., Ltd., priority 2014, published 2015)
